# Assay results as given in ChEMBL document CHEMBL3885861, “Open TG-GATES”.
# Organism: Rattus norvegicus
# Assay: Open TG-GATES - Regimen: Daily Repeat
# Format: toxicity, organism-based, Sprague-Dawley
# Set-up: regimen Daily Repeat, gender Male, age 6 weeks
# Details: in vivo, po, route gavage; for APTT / Bas / Eos / Fbg / Hb / Ht / Lym / MCH / MCHC / MCV / Mono / Neu / PT / Plat / RBC / Ret / WBC: tissue Blood; for KIDNEY_TOTAL: tissue Kidney; for LIVER: tissue Liver; for A/G / ALP / ALT / AST / BUN / CRE / Ca / Cl / DBIL / GLC / IP / K / LDH / Na / PL / RALB / TBIL / TC / TG / TP / gamma-GTP: tissue Plasma
# [1] = 0 mg/kg, 72 h, dose level Control, time 3 day
# [2] = 0 mg/kg, […], dose level Control, time 7 day
# [3] = 0 mg/kg, […], dose level Control, time 14 day
# [4] = 0 mg/kg, […], dose level Control, time 28 day
# [5] = 2 mg/kg, 72 h, dose level Low, time 3 day
# [6] = 2 mg/kg, […], dose level Low, time 7 day
# [7] = 2 mg/kg, […], dose level Low, time 14 day
# [8] = 2 mg/kg, […], dose level Low, time 28 day
smiles,measurement,setting,value
CN(CCOc1ccc(CC2SC(=O)NC2=O)cc1)c1ccccn1.O=C(O)/C=C\C(=O)O (stereo not drawn) [ROSIGLITAZONE MALEATE],TERMINAL_BW,[1],242.8 g
same,APTT,[1],15.5 s
same,Bas,[1],0%
same,Eos,[1],1.2%
same,Fbg,[1],236.8 mg/dL
same,Hb,[1],13 g/dL
same,Ht,[1],39.2%
same,Lym,[1],76.6%
same,MCH,[1],21.1 pg
same,MCHC,[1],33%
same,MCV,[1],63.9 fL
same,Mono,[1],5.2%
same,Neu,[1],17.4%
same,PT,[1],11.5 s
same,Plat,[1],136 x10_4/uL
same,RBC,[1],615.6 x10_4/ul
same,Ret,[1],6.6%
same,WBC,[1],98 x10_2/uL
same,KIDNEY_TOTAL,[1],0.8 g
same,LIVER,[1],12.6 g
same,A/G,[1],2.2
same,ALP,[1],1243.6 IU/L
same,ALT,[1],35.6 IU/L
same,AST,[1],62.6 IU/L
same,BUN,[1],14.8 mg/dL
same,CRE,[1],0.2 mg/dL
same,Ca,[1],11.7 mg/dL
same,Cl,[1],104.2 meq/L
same,DBIL,[1],0.014 mg/dL
same,GLC,[1],197.6 mg/dL
same,IP,[1],6.9 mg/dL
same,K,[1],4.7 meq/L
same,LDH,[1],96.2 IU/L
same,Na,[1],140.4 meq/L
same,PL,[1],154.8 mg/dL
same,RALB,[1],3.9 g/dL
same,TBIL,[1],0.04 mg/dL
same,TC,[1],83.4 mg/dL
same,TG,[1],105.8 mg/dL
same,TP,[1],5.8 g/dL
same,gamma-GTP,[1],0.2 IU/L
same,TERMINAL_BW,[2],274.1 g
same,TERMINAL_BW,[3],332.1 g
same,TERMINAL_BW,[4],412.9 g
same,APTT,[2],16.1 s
same,Bas,[2],0%
same,Eos,[2],1%
same,Fbg,[2],242.4 mg/dL
same,Hb,[2],13.4 g/dL
same,Ht,[2],40.5%
same,Lym,[2],82%
same,MCH,[2],20.8 pg
same,MCHC,[2],33%
same,MCV,[2],63 fL
same,Mono,[2],4.4%
same,Neu,[2],12.8%
same,PT,[2],11.7 s
same,Plat,[2],134.6 x10_4/uL
same,RBC,[2],643.8 x10_4/ul
same,Ret,[2],4.6%
same,WBC,[2],98.6 x10_2/uL
same,APTT,[3],15.7 s
same,Bas,[3],0%
same,Eos,[3],1%
same,Fbg,[3],247.4 mg/dL
same,Hb,[3],14 g/dL
same,Ht,[3],42.3%
same,Lym,[3],74.4%
same,MCH,[3],20.6 pg
same,MCHC,[3],33%
same,MCV,[3],62.2 fL
same,Mono,[3],6%
same,Neu,[3],18.6%
same,PT,[3],11.5 s
same,Plat,[3],126.2 x10_4/uL
same,RBC,[3],680.2 x10_4/ul
same,Ret,[3],3.6%
same,WBC,[3],124.2 x10_2/uL
same,APTT,[4],16 s
same,Bas,[4],0%
same,Eos,[4],1%
same,Fbg,[4],242.4 mg/dL
same,Hb,[4],14.6 g/dL
same,Ht,[4],44%
same,Lym,[4],75.2%
same,MCH,[4],19.5 pg
same,MCHC,[4],33.2%
same,MCV,[4],58.9 fL
same,Mono,[4],7.6%
same,Neu,[4],16.4%
same,PT,[4],11.7 s
same,Plat,[4],120.2 x10_4/uL
same,RBC,[4],747.6 x10_4/ul
same,Ret,[4],2.6%
same,WBC,[4],114.8 x10_2/uL
same,KIDNEY_TOTAL,[2],0.7 g
same,KIDNEY_TOTAL,[3],0.9 g
same,KIDNEY_TOTAL,[4],0.9 g
same,LIVER,[2],12.9 g
same,LIVER,[3],15.7 g
same,LIVER,[4],17.1 g
same,A/G,[2],2
same,ALP,[2],1306.8 IU/L
same,ALT,[2],33.2 IU/L
same,AST,[2],58.8 IU/L
same,BUN,[2],18.2 mg/dL
same,CRE,[2],0.5 mg/dL
same,Ca,[2],19.5 mg/dL
same,Cl,[2],104.8 meq/L
same,DBIL,[2],0.01 mg/dL
same,GLC,[2],181.4 mg/dL
same,IP,[2],7.1 mg/dL
same,K,[2],4.5 meq/L
same,LDH,[2],79 IU/L
same,Na,[2],140 meq/L
same,PL,[2],148.6 mg/dL
same,RALB,[2],3.8 g/dL
same,TBIL,[2],0.028 mg/dL
same,TC,[2],76.6 mg/dL
same,TG,[2],138.8 mg/dL
same,TP,[2],5.7 g/dL
same,gamma-GTP,[2],0.2 IU/L
same,A/G,[3],2.1
same,ALP,[3],1411 IU/L
same,ALT,[3],32.8 IU/L
same,AST,[3],62.4 IU/L
same,BUN,[3],19 mg/dL
same,CRE,[3],0.4 mg/dL
same,Ca,[3],11.1 mg/dL
same,Cl,[3],106 meq/L
same,DBIL,[3],0.01 mg/dL
same,GLC,[3],186.4 mg/dL
same,IP,[3],7.2 mg/dL
same,K,[3],4.5 meq/L
same,LDH,[3],65 IU/L
same,Na,[3],143 meq/L
same,PL,[3],159.4 mg/dL
same,RALB,[3],3.9 g/dL
same,TBIL,[3],0.036 mg/dL
same,TC,[3],76.4 mg/dL
same,TG,[3],186.4 mg/dL
same,TP,[3],5.8 g/dL
same,gamma-GTP,[3],1 IU/L
same,A/G,[4],1.9
same,ALP,[4],1035.6 IU/L
same,ALT,[4],29.2 IU/L
same,AST,[4],55 IU/L
same,BUN,[4],18.4 mg/dL
same,CRE,[4],0.4 mg/dL
same,Ca,[4],10.7 mg/dL
same,Cl,[4],105 meq/L
same,DBIL,[4],0.012 mg/dL
same,GLC,[4],183 mg/dL
same,IP,[4],6.1 mg/dL
same,K,[4],4.4 meq/L
same,LDH,[4],68.8 IU/L
same,Na,[4],139.8 meq/L
same,PL,[4],144.8 mg/dL
same,RALB,[4],3.9 g/dL
same,TBIL,[4],0.036 mg/dL
same,TC,[4],73.2 mg/dL
same,TG,[4],162 mg/dL
same,TP,[4],5.9 g/dL
same,gamma-GTP,[4],0.4 IU/L
same,TERMINAL_BW,[5],243.4 g
same,APTT,[5],15.7 s
same,Bas,[5],0%
same,Eos,[5],1%
same,Fbg,[5],233.4 mg/dL
same,Hb,[5],13.2 g/dL
same,Ht,[5],40.2%
same,Lym,[5],73%
same,MCH,[5],20.7 pg
same,MCHC,[5],32.7%
same,MCV,[5],63.4 fL
same,Mono,[5],7.4%
same,Neu,[5],18.8%
same,PT,[5],11.7 s
same,Plat,[5],133 x10_4/uL
same,RBC,[5],634.8 x10_4/ul
same,Ret,[5],6.7%
same,WBC,[5],88.6 x10_2/uL
same,KIDNEY_TOTAL,[5],0.7 g
same,LIVER,[5],12.2 g
same,A/G,[5],2.1
same,ALP,[5],1105.8 IU/L
same,ALT,[5],36 IU/L
same,AST,[5],64.2 IU/L
same,BUN,[5],15.6 mg/dL
same,CRE,[5],0.2 mg/dL
same,Ca,[5],11.5 mg/dL
same,Cl,[5],104.4 meq/L
same,DBIL,[5],0.01 mg/dL
same,GLC,[5],189.4 mg/dL
same,IP,[5],8 mg/dL
same,K,[5],4.6 meq/L
same,LDH,[5],128.2 IU/L
same,Na,[5],140.8 meq/L
same,PL,[5],152.2 mg/dL
same,RALB,[5],3.9 g/dL
same,TBIL,[5],0.034 mg/dL
same,TC,[5],83 mg/dL
same,TG,[5],88.2 mg/dL
same,TP,[5],5.8 g/dL
same,gamma-GTP,[5],0 IU/L
same,TERMINAL_BW,[6],271.5 g
same,TERMINAL_BW,[7],343.6 g
same,TERMINAL_BW,[8],425.3 g
same,APTT,[6],16.1 s
same,Bas,[6],0%
same,Eos,[6],1%
same,Fbg,[6],246.6 mg/dL
same,Hb,[6],13.3 g/dL
same,Ht,[6],40.4%
same,Lym,[6],77.6%
same,MCH,[6],20.9 pg
same,MCHC,[6],32.9%
same,MCV,[6],63.5 fL
same,Mono,[6],5.2%
same,Neu,[6],16.2%
same,PT,[6],11.5 s
same,Plat,[6],134.4 x10_4/uL
same,RBC,[6],636.8 x10_4/ul
same,Ret,[6],5.1%
same,WBC,[6],102.8 x10_2/uL
same,APTT,[7],15.3 s
same,Bas,[7],0%
same,Eos,[7],0.8%
same,Fbg,[7],233.4 mg/dL
same,Hb,[7],13.4 g/dL
same,Ht,[7],40.9%
same,Lym,[7],77.6%
same,MCH,[7],20.2 pg
same,MCHC,[7],32.8%
same,MCV,[7],61.5 fL
same,Mono,[7],5.4%
same,Neu,[7],16.2%
same,PT,[7],11.7 s
same,Plat,[7],116.6 x10_4/uL
same,RBC,[7],666 x10_4/ul
same,Ret,[7],3.8%
same,WBC,[7],109.2 x10_2/uL
same,APTT,[8],15.7 s
same,Bas,[8],0%
same,Eos,[8],1%
same,Fbg,[8],236.8 mg/dL
same,Hb,[8],14.4 g/dL
same,Ht,[8],44%
same,Lym,[8],83.2%
same,MCH,[8],18.7 pg
same,MCHC,[8],32.7%
same,MCV,[8],57.2 fL
same,Mono,[8],3.8%
same,Neu,[8],12%
same,PT,[8],11.9 s
same,Plat,[8],108.5 x10_4/uL
same,RBC,[8],769.2 x10_4/ul
same,Ret,[8],2.2%
same,WBC,[8],93.8 x10_2/uL
same,KIDNEY_TOTAL,[6],0.7 g
same,KIDNEY_TOTAL,[7],0.8 g
same,KIDNEY_TOTAL,[8],0.7 g
same,LIVER,[6],12.8 g
same,LIVER,[7],15.1 g
same,LIVER,[8],16.8 g
same,A/G,[6],2
same,ALP,[6],1242 IU/L
same,ALT,[6],32.4 IU/L
same,AST,[6],62.2 IU/L
same,BUN,[6],19 mg/dL
same,CRE,[6],0.5 mg/dL
same,Ca,[6],11.4 mg/dL
same,Cl,[6],104.6 meq/L
same,DBIL,[6],0.012 mg/dL
same,GLC,[6],183.4 mg/dL
same,IP,[6],7.2 mg/dL
same,K,[6],4.3 meq/L
same,LDH,[6],118 IU/L
same,Na,[6],140.8 meq/L
same,PL,[6],144.6 mg/dL
same,RALB,[6],3.8 g/dL
same,TBIL,[6],0.034 mg/dL
same,TC,[6],73.6 mg/dL
same,TG,[6],100.6 mg/dL
same,TP,[6],5.7 g/dL
same,gamma-GTP,[6],0.6 IU/L
same,A/G,[7],2.1
same,ALP,[7],1340.2 IU/L
same,ALT,[7],35.2 IU/L
same,AST,[7],64.8 IU/L
same,BUN,[7],18 mg/dL
same,CRE,[7],0.4 mg/dL
same,Ca,[7],11.2 mg/dL
same,Cl,[7],105.6 meq/L
same,DBIL,[7],0.01 mg/dL
same,GLC,[7],189.8 mg/dL
same,IP,[7],7.8 mg/dL
same,K,[7],4.4 meq/L
same,LDH,[7],92.2 IU/L
same,Na,[7],143.2 meq/L
same,PL,[7],142.2 mg/dL
same,RALB,[7],3.8 g/dL
same,TBIL,[7],0.032 mg/dL
same,TC,[7],70.4 mg/dL
same,TG,[7],110 mg/dL
same,TP,[7],5.7 g/dL
same,gamma-GTP,[7],1 IU/L
same,A/G,[8],2
same,ALP,[8],1172.5 IU/L
same,ALT,[8],34 IU/L
same,AST,[8],62.8 IU/L
same,BUN,[8],18.2 mg/dL
same,CRE,[8],0.4 mg/dL
same,Ca,[8],10.6 mg/dL
same,Cl,[8],105 meq/L
same,DBIL,[8],0.01 mg/dL
same,GLC,[8],185.2 mg/dL
same,IP,[8],6.4 mg/dL
same,K,[8],4.2 meq/L
same,LDH,[8],90.2 IU/L
same,Na,[8],141.2 meq/L
same,PL,[8],119 mg/dL
same,RALB,[8],3.9 g/dL
same,TBIL,[8],0.035 mg/dL
same,TC,[8],54.8 mg/dL
same,TG,[8],126.5 mg/dL
same,TP,[8],5.9 g/dL
same,gamma-GTP,[8],0 IU/L
